# The supplement of paper PMC11061612
# Assays:
# Assay in all cases: Bliss excess, mean over the matrix (fraction); higher = more synergy
# [1] = test system: C-33-A (Cervical Carcinoma)
# How it was run: (§1)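 Cell lines grown in DMEM/F12 or RPMI with 10% FBS were plated in 1536-well plates and held 24 hours at 37°C, 5% CO2 before 72 hours of exposure to two-drug dose matrices, with DMSO typically at 0.2%. CellTiter-Glo 2.0 luminescence gave viability, which was converted to inhibition. Vehicle wells were set to 0 and blank wells to 1. Combination Emax is the second-highest inhibition in the matrix, and Bliss excess is the observed combination effect minus the expected EA + EB − EA·EB, where EA and EB are the single-agent effects.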
# [2] = test system: CPC-N (Small Cell Lung Carcinoma)
# How it was run: as §1
# [3] = test system: DBTRG-05MG (Glioblastoma)
# How it was run: as §1
# ES6 (Ewing's Sarcoma) = test system: ES6 (Ewing's Sarcoma)
# How it was run: as §1
# KALS-1 (Glioblastoma) = test system: KALS-1 (Glioblastoma)
# How it was run: as §1
# [4] = test system: LCLC-103H (Non-Small Cell Lung Carcinoma)
# How it was run: as §1
# [5] = test system: LS-1034 (Colorectal Carcinoma)
# How it was run: as §1
# [6] = test system: MOLP-8 (Plasma Cell Myeloma)
# How it was run: as §1
# [7] = test system: NAMALWA (Burkitt's Lymphoma)
# How it was run: as §1
# [8] = test system: NCI-H1963 (Small Cell Lung Carcinoma)
# How it was run: as §1
# [9] = test system: OAW-28 (Ovarian Carcinoma)
# How it was run: as §1
# [10] = test system: PL4 (Pancreatic Carcinoma)
# How it was run: as §1
# [11] = test system: RCC-JW (Kidney Carcinoma)
# How it was run: as §1
# [12] = test system: SAT (Head and Neck Carcinoma)
# How it was run: as §1
# [13] = test system: SCC-4 (Oral Cavity Carcinoma)
# How it was run: as §1
# SK-N-SH (Neuroblastoma) = test system: SK-N-SH (Neuroblastoma)
# How it was run: as §1
# [14] = test system: SKG-IIIa (Cervical Carcinoma)
# How it was run: as §1
# [15] = test system: SNU-C2B (Colorectal Carcinoma)
# How it was run: as §1
# [16] = test system: SUP-M2 (T-Cell Non-Hodgkin's Lymphoma)
# How it was run: as §1
# [17] = test system: SiHa (Cervical Carcinoma)
# How it was run: as §1
SMILES,Bliss excess [1],Bliss excess [2],Bliss excess [3],Bliss excess (ES6 (Ewing's Sarcoma)),Bliss excess (KALS-1 (Glioblastoma)),Bliss excess [4],Bliss excess [5],Bliss excess [6],Bliss excess [7],Bliss excess [8],Bliss excess [9],Bliss excess [10],Bliss excess [11],Bliss excess [12],Bliss excess [13],Bliss excess (SK-N-SH (Neuroblastoma)),Bliss excess [14],Bliss excess [15],Bliss excess [16],Bliss excess [17]
"Cc1c2c(nn1C)CSCc1cc(n(C)n1)CSc1cc(c3ccccc3c1)OCCCc1c(C(=O)O)n(C)c3c-2c(Cl)ccc13 [AZD5991] + C[C@@H](Nc1cc(F)cc(F)c1)c1cc(C(=O)N(C)C)cc2c(=O)cc(N3CCOCC3)oc12 [AZD8186] (first compound max 1 µM, 7x7, partner max 3 µM)",-0.0463,-0.0085,0.0008,0.0045,0.012,0.0125,-0.0142,0.0039,0.0021,0.0155,0.0538,0.0356,0.0126,-0.0731,0.0116,-0.0094,-0.0411,-0.0337,-0.0203,0.0044
"NC1(C(=O)N[C@@H](CCO)c2ccc(Cl)cc2)CCN(c2ncnc3[nH]ccc23)CC1 [Capivasertib] + CCN(CCO)CCCOc1ccc2c(Nc3cc(CC(=O)Nc4cccc(F)c4)[nH]n3)ncnc2c1 [AZD2811] (first compound max 10 µM, 7x7, partner max 1 µM)",0.0297,-0.0523,0.03,-0.0055,0.0318,-0.0032,-0.0634,0.0345,0.0887,-0.023,0.0262,0.0317,-0.0014,-0.0307,-0.0671,-0.0455,-0.035,-0.0032,-0.0005,0.0067
"Cn1cnc2c(F)c(Nc3ccc(Br)cc3Cl)c(C(=O)NOCCO)cc21 [Selumetinib] + CC(C)n1c(=O)n(C)c2cnc3cc(F)c(-c4ccc(OCCCN5CCCCC5)nc4)cc3c21 [AZD1390] (first compound max 10 µM, 7x7, partner max 0.3 µM)",0.0134,-0.0396,0.0213,-0.0639,-0.0115,-0.0154,-0.0198,-0.0274,-0.0102,0.0154,0.0193,0.0102,-0.051,0.0022,-0.0669,-0.0624,-0.0444,-0.0081,0.007,-0.018
"CN(C)CCCOc1ccc(-c2ccc3ncc4c(c3c2)n(C2CCOCC2)c(=O)n4C)cn1 [AZD0156] + C=CCn1c(=O)c2cnc(Nc3ccc(N4CCN(C)CC4)cc3)nc2n1-c1cccc(C(C)(C)O)n1 [AZD1775] (first compound max 1 µM, partner max 1 µM)",-0.0461,-0.0025,-0.0489,-0.0501,0.0014,-0.0079,-0.0318,-0.0739,0.0156,-0.0147,-0.0386,-0.0586,-0.061,-0.0388,-0.0393,-0.0533,-0.0565,-0.0328,0.0535,-0.0334
"Cc1nc(Nc2ncc(C(=O)Nc3c(C)cccc3Cl)s2)cc(N2CCN(CCO)CC2)n1 [Dasatinib] + CC(=O)Nc1cccc(-n2c(=O)n(C3CC3)c(=O)c3c(Nc4ccc(I)cc4F)n(C)c(=O)c(C)c32)c1 [Trametinib] (first compound max 2 µM, 7x7, partner max 1 µM)",0.0559,-0.0405,0.0499,-0.0495,-0.0046,0.0201,-0.0302,0.0159,-0.0039,0.0078,0.0599,-0.0056,0.0062,-0.0712,-0.0042,-0.0507,-0.026,-0.0275,-0.0216,-0.0082
"COc1cc2ncnc(Nc3ccc(F)c(Cl)c3)c2cc1OCCCN1CCOCC1 [Gefitinib] + CC(C)n1c(=O)n(C)c2cnc3cc(F)c(-c4ccc(OCCCN5CCCCC5)nc4)cc3c21 [AZD1390] (first compound max 10 µM, 7x7, partner max 0.3 µM)",-0.0656,-0.0369,-0.0482,-0.0574,-0.0471,-0.0119,-0.0368,-0.0584,-0.0355,-0.0526,-0.0392,-0.055,-0.069,-0.0522,-0.059,-0.0718,-0.0991,-0.06,-0.0522,-0.0732
"CN(C)CCCOc1ccc(-c2ccc3ncc4c(c3c2)n(C2CCOCC2)c(=O)n4C)cn1 [AZD0156] + CCN(CCO)CCCOc1ccc2c(Nc3cc(CC(=O)Nc4cccc(F)c4)[nH]n3)ncnc2c1 [AZD2811] (first compound max 1 µM, 7x7, partner max 1 µM)",-0.0142,0.0049,-0.0453,-0.0766,-0.0245,-0.0395,-0.0261,-0.0308,0.0323,-0.0463,-0.0061,0.0286,-0.0243,-0.0362,-0.0668,-0.0133,-0.05,-0.0227,-0.0286,-0.0083
"CN(C)CCCOc1ccc(-c2ccc3ncc4c(c3c2)n(C2CCOCC2)c(=O)n4C)cn1 [AZD0156] + C[C@@H]1COCCN1C2=NC(=NC(=C2)C3(CC3)[S@](=N)(=O)C)C4=C5C=CNC5=NC=C4 [AZD6738] (first compound max 1 µM, 7x7, partner max 10 µM)",0.0157,0.0316,-0.022,-0.0076,-0.0032,-0.0352,0.0161,0.0203,0.0342,0.0086,-0.0279,0.0862,-0.0531,-0.0116,-0.0071,-0.115,-0.0555,0.0183,0.0555,-0.0456
"Cc1cc2ncnn2cc1Nc1ncc2c(n1)n(C1CCOCC1)c(=O)n2C [AZD7648] + CCN(CCO)CCCOc1ccc2c(Nc3cc(CC(=O)Nc4cccc(F)c4)[nH]n3)ncnc2c1 [AZD2811] (first compound max 10 µM, 7x7, partner max 1 µM)",0.045,-0.0306,-0.0028,-0.0042,0.0068,-0.026,0.0104,0.0616,0.114,-0.0146,0.0284,-0.0041,-0.011,-0.0101,-0.0526,0.0001,-0.0161,0.0265,-0.0267,0.0278
"COc1nnc2ccc(N3CCC(c4ccc(OCCN5CCN(C)C(=O)[C@H]5C)cc4)CC3)nn12 [AZD5153] + Cc1c2c(nn1C)CSCc1cc(n(C)n1)CSc1cc(c3ccccc3c1)OCCCc1c(C(=O)O)n(C)c3c-2c(Cl)ccc13 [AZD5991] (first compound max 1 µM, 7x7, partner max 1 µM)",0.0124,0.0163,-0.0296,-0.0033,0.0141,0.0179,-0.0569,-0.0051,-0.0536,0.0125,0.0515,-0.0242,-0.0078,0.0109,-0.0208,-0.0334,-0.0782,-0.0319,-0.0372,-0.0237
"CC1(C)CCC(CN2CCN(c3ccc(C(=O)NS(=O)(=O)c4ccc(NCC5CCOCC5)c([N+](=O)[O-])c4)c(Oc4cnc5[nH]ccc5c4)c3)CC2)=C(c2ccc(Cl)cc2)C1 [Venetoclax] + C=CCn1c(=O)c2cnc(Nc3ccc(N4CCN(C)CC4)cc3)nc2n1-c1cccc(C(C)(C)O)n1 [AZD1775] (first compound max 1 µM, partner max 1 µM)",0.0262,0.0439,-0.0476,0.025,0.0815,-0.0136,-0.043,-0.0225,0.0438,0.123,-0.009,-0.0751,-0.0116,-0.0537,0.0032,0.0526,-0.0362,-0.009,0.03,-0.0527
"CC1(C)CCC(CN2CCN(c3ccc(C(=O)NS(=O)(=O)c4ccc(NCC5CCOCC5)c([N+](=O)[O-])c4)c(Oc4cnc5[nH]ccc5c4)c3)CC2)=C(c2ccc(Cl)cc2)C1 [Venetoclax] + C[C@@H](Nc1cc(F)cc(F)c1)c1cc(C(=O)N(C)C)cc2c(=O)cc(N3CCOCC3)oc12 [AZD8186] (first compound max 1 µM, 7x7, partner max 3 µM)",-0.0523,0.0256,-0.0251,-0.0661,0.0015,-0.0504,-0.0318,0.0293,0.0287,0.21,0.0551,-0.049,0.0135,0.0036,-0.119,0.0249,-0.0248,-0.0408,0.0106,0.0009
"CC(=O)Nc1cccc(-n2c(=O)n(C3CC3)c(=O)c3c(Nc4ccc(I)cc4F)n(C)c(=O)c(C)c32)c1 [Trametinib] + Cc1nc(-c2cn3c(n2)-c2ccc(-c4cnn(C(C)(C)C(N)=O)c4)cc2OCC3)n(C(C)C)n1 [Taselisib] (first compound max 1 µM, 7x7, partner max 10 µM)",0.0744,0.0985,0.0957,-0.0292,0.0751,0.0657,0.0234,0.186,0.0825,0.0452,0.158,0.0796,0.0114,-0.0373,0.147,0.077,0.112,0.114,0.106,0.0162
"Cc1c2c(nn1C)CSCc1cc(n(C)n1)CSc1cc(c3ccccc3c1)OCCCc1c(C(=O)O)n(C)c3c-2c(Cl)ccc13 [AZD5991] + Cc1cc2ncnn2cc1Nc1ncc2c(n1)n(C1CCOCC1)c(=O)n2C [AZD7648] (first compound max 1 µM, 7x7, partner max 10 µM)",-0.0586,-0.0109,-0.0436,-0.0745,-0.008,-0.0543,0.0092,0.0192,-0.0286,-0.0169,0.0125,-0.0395,-0.0349,-0.0599,-0.0269,-0.0211,-0.0261,-0.012,-0.0146,-0.0234
